From PMC12207533, “Structure-guided design of a methyltransferase-like 3 (METTL3) proteolysis targeting chimera (PROTAC) incorporating an indole–nicotinamide chemotype” (RSC Medicinal Chemistry, 2025)
Where “and” joins values, the source holds several entries; their conditions need not be identical. Equal entries are not always repeated. Where two headings read alike, the source gives them in different places.

Columns and labels:
[1] = target: T1, VCB (VHL, elongin B, elongin C) (Homo sapiens, UniProt P40337); experiment: FP displacement assay with VCB (binary and ternary KD, cooperativity); format: binding
T1 construct: VHL (UniProt: P40337, aa 1–213); His6 (N); made in house; host or cells: E. coli BL21 (DE3)
Method: Fluorescence polarization (FP) displacement assays with METTL3/14 (ref. [36]) and VCB[38–40] were performed following previous protocols with slight adaptations. All experiments were conducted in black Greiner 96-well half-area plates using a Tecan Spark 10 M plate reader, equipped with polarization filters coupled to a monochromator setup (λex = 480 nm, λem = 530 nm). Reaction mixtures for METTL3/14 contained 300 nM recombinant enzyme, 20 nM FAM-labelled displacement tracer (STM-FL[36]), and the test compounds at varying concentrations in 25 mM Tris HCl, pH 7.5, 100 mM NaCl, and 10% DMSO. For VCB, the mixtures contained 40 nM recombinant enzyme, 10 nM FAM-labelled probe (FAM-DEALAHyp[…], Tocris Bioscience), and the tested compounds, at varying concentrations, in 50 mM Tris, pH 7.5, 200 mM NaCl, 2 mM DTT, and 10% DMSO. […] All measurements were performed at least as technical triplicates. Polarization values (mP) were determined from polarization-specific parallel and orthogonal fluorescence intensities using the Tecan in-built calculation routine. Using GraphPad Prism 8.0.1, the FP values were normalized, and KD values were calculated using a 4-parameter Hill equation: y(% probe bound) = bottom + ([ligand]slope) × (top–bottom)/([ligand]slope + KD slope).

METTL3 [2] = tested on: METTL3; set-up: method as in PMID 38194973; details: cited from earlier work
human VHL = target: T2, human VHL (Homo sapiens, UniProt P40337); experiment: HTRF human VHL binding kit; details: VHL affinity in presence and absence of METTL3/14 (4 μM)
T2 construct: purchased Revvity
Method: PROTACs binding to VHL or CRBN were measured using a homogeneous time-resolved fluorescence (HTRF) human VHL or CRBN binding kit (Revvity). Samples were prepared according to the manufacturer's protocol, with compounds diluted in the provided diluent while maintaining a constant DMSO concentration with a final concentration of 1.25%. For the ternary KD determinations, METTL3/14 was added at 4 μM, corresponding to approximately a 20- to 40-fold excess of binary KD, while all other component concentrations were kept as specified in the protocol. Measurements were performed in triplicate using a Tecan Spark 10 M plate reader, recording donor and acceptor emissions at λem_donor = 620 nm and λem_acceptor = 665 nm, respectively, following excitation of the HTRF donor at λex = 320 nm. The acceptor-to-donor emission ratio was calculated as ratio = signal 665 nm/signal 620 nm. Using GraphPad Prism 8.0.1, the fluorescence values were normalized, and KD values were calculated as specified above.

MOLM-13 cells = experiment: Cell viability assay (CellTiter Glo 2.0); format: cell-based, human; details: MOLM-13, 72 h, read-out: IC50 (cell viability inhibition)
Method: To determine cell viability, MOLM-13 cells were treated with the indicated compounds in a 1 : 1 serial dilution, with pure DMSO (final: 0.1%) as the negative control. Briefly, 1000 cells were seeded in black Greiner half-area 96-well plates and incubated for 72 h with inhibitors from DMSO stocks under standard cultivation conditions. Then, Promega CellTiter Glo 2.0 reagent was added to each well according to the manufacturer's protocols, and luminescence was measured using a Tecan Spark 10 M. Experiments were conducted in technical triplicate. Data was normalized to the DMSO control and analyzed with GraphPad Prism 8.0.1 to determine EC50 values. Synergistic effects of venetoclax and AF151 on cell MOLM-13 viability were conducted accordingly, with dilution series of both compounds analyzed using the SynergyFinder+ webtoolkit.[57]

METTL3 mRNA = experiment: RT-qPCR of METTL3 mRNA expression; format: cell-based, human; details: MOLM-13, AF151 2 μM or STM2457 10 μM, 24 h and 48 h
Method: (§1) To determine mRNA expression levels of METTL3 and METTL14, MOLM-13 cells were treated in triplicate with compound 41 (AF151, 2 μM), STM2457 (10 μM), and DMSO for 24 resp. 48 h. Afterward, total RNA was extracted using the TRIzol™ reagent (Thermo Fisher Scientific) and purified with the Monarch® Spin RNA Cleanup Kit (New England Biolabs). RT-qPCR was conducted using the two-step GoTaq® RT-qPCR system (Promega) following the manufacturer's protocol. The data were normalized to the DMSO control and GAPDH housekeeping gene (ΔΔCt) using GraphPad Prism 8.0.1.

METTL3 [3] = target: METTL3; set-up: method as in PMID 33902106; details: cited from earlier work
METTL14 mRNA = experiment: RT-qPCR of METTL14 mRNA expression; format: cell-based, human; details: MOLM-13, AF151 2 μM or STM2457 10 μM, 24 h and 48 h
Method: as §1

METTL3 [4] = target: T3, METTL3 (Homo sapiens, UniProt Q86U44); experiment: Immunoblotting of METTL3 protein levels in MOLM-13 cells; format: cell-based; details: MOLM-13, 0.1-10 μM, 16 h
T3 construct: endogenous in cells; host or cells: MOLM-13
Method: MOLM-13 were seeded in 12-well cell culture plates at a density of 1 × 10^6 cells per mL and treated with DMSO (final: 0.1%) or different concentrations of PROTAC degraders in DMSO at the indicated times. Treatments were conducted in biological triplicate with varying passages of MOLM-13 cells. The cells were harvested by centrifugation at 500g for 5 min and washed with PBS. The cells were lysed with RIPA lysis buffer with the addition of protease inhibitor (1× cOMPLETE), and insoluble cellular parts were separated by centrifugation (12 000g for 10 min), subsequently, the supernatant was boiled with 1× Laemmli sample buffer (Carl Roth) for 5 min at 95 °C. Proteins were separated by SDS–PAGE on 4–20% Criterion™ TGX™ Precast Protein Gels (Bio-Rad) and transferred to Amersham™ Protean® 0.45 μm nitrocellulose membrane (Cytiva) using semi-dry transfer (25 V, 1 A, Towbin buffer). The membrane was blocked with 5% milk (Carl Roth) in TBST buffer and incubated with the following primary antibodies: Anti-METTL3 (1 : 1000, Abcam, ab195352), anti-METTL14 (1 : 1000, Abcam, ab220030), anti-Bcl2 (1 : 1000, Cell Signaling Technology [CST], EPR16891), anti-Mcl-1 (1 : 1000, CST, 5453 T), anti-Bcl-XL (1 : 1000, CST, 2764 T), anti-vinculin (1 : 1000, CST, 13901) or anti-GAPDH (1 : 5000, CST, D17C4) overnight at 4 °C. Subsequently, the membrane was incubated for 1 h at RT with secondary antibodies: anti-rabbit (1 : 2000, VWR, NA934) or anti-mouse (1 : 2000, VWR, 102646-160). The protein bands were detected via chemiluminescence using Pierce™ ECL western blotting substrate and a Fusion FX imaging system (Vilber). The ImageLab software (Bio-Rad) was used for band quantification.

T1 sequence (P40337 whole entry, the tested form may be a part): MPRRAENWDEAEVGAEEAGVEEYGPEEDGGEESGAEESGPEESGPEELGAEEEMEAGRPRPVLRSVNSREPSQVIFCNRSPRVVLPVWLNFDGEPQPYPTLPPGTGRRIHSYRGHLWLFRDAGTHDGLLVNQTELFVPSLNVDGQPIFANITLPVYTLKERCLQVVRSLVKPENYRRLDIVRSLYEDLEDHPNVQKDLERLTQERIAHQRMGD
T1 sequence (Q15370 whole entry partner, the tested form may be a part): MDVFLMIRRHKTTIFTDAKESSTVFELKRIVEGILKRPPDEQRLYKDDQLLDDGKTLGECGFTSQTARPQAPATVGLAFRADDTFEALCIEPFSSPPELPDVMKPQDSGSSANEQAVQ
T1 sequence (Q15369 17-112 partner limits assumed): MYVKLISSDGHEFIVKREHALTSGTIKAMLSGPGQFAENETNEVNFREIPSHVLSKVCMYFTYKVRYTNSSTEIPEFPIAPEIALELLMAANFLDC
T3 sequence (Q86U44 whole entry): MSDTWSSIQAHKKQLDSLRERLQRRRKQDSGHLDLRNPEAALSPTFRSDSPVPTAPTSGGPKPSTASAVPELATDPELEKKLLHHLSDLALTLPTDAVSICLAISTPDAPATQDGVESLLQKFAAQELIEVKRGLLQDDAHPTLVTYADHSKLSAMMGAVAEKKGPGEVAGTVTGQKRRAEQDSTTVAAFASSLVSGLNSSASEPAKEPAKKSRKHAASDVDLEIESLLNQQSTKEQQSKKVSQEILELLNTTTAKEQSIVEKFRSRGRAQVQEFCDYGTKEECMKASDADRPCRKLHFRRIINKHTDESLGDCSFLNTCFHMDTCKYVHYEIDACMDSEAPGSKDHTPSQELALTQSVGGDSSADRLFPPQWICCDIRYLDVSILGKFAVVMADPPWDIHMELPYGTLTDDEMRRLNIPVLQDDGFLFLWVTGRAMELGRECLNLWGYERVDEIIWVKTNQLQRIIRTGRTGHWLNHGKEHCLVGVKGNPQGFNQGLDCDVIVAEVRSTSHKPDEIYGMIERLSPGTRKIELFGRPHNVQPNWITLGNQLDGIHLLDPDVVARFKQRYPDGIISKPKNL
T2 sequence (P40337 whole entry): as the sequence (P40337 whole entry, the tested form may be a part) above
T2 sequence (Q15370 whole entry partner): as the sequence (Q15370 whole entry partner, the tested form may be a part) above
T2 sequence (Q15369 whole entry partner): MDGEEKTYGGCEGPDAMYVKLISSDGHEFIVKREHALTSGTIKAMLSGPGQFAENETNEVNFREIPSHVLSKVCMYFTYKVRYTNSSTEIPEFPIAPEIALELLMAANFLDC

Cc1ncsc1-c1ccc([C@H](C)NC(=O)[C@@H]2C[C@@H](O)CN2C(=O)[C@@H](NC(=O)CCC#Cc2ccc(CNc3cc(N4CCC5(CC4)CN(c4cc(F)c(CN6CCC(C)(C)CC6)cc4F)CC(=O)N5)ncn3)cc2)C(C)(C)C)cc1 [WD6305]
Kd ([1]; 40 nM VCB, 10 nM probe, absence of METTL3, read-out: KD E3-ligases (VHL, FP), binary): 1700 nM
Kd ([1]; absence of METTL3, read-out: KD binary (VHL)): 1760 ± 264 nM
Kd ([1]; presence of METTL3/14 (12 μM), read-out: KD ternary (VHL)): 77.4 nM and 79 nM
Dmax (METTL3 degradation) (METTL3 [2]): ~91%
DC50 (METTL3 [2]; read-out: DC50 (METTL3 degradation)): 140 nM
cooperativity (HTRF) (human VHL): positive cooperativity
IC50 (MOLM-13 cells; Homo sapiens): 780 nM

STM2457 [reference compound]
METTL3 mRNA level (ΔΔCt) (METTL3 mRNA): no significant changes
Kd (METTL3 [3]): 1.4 nM
METTL14 mRNA level (ΔΔCt) (METTL14 mRNA): no significant changes
METTL3 degradation (Western blot screening) (METTL3 [4]): do not func?on as METTL3 degraders
IC50 (MOLM-13 cells): 1820 nM
